From patent US4012387A, “Benzo-[g]pyrido[2,1-b]quinazolinones” (Warner-Lambert Company, priority 1975, dated 1977)
Like-named read-outs stand apart in the source and are kept apart here.

System: rat passive cutaneous anaphylaxis
Assay: rat passive cutaneous anaphylaxis test (PCA), procedure of Herzig
Assay type: in vivo
Text: Mansmann, Eds., John Wiley and Son, N.Y., 1975].
Effective dose 50% inhibition rat passive cutaneous anaphylaxis

[1] = effective dose 50% inhibition, rat PCA, intravenous, read-out: ED50 -PCA (rat) iv.

Row | Structure (SMILES) | ED50 [1] | ED50 (effective dose 50% inhibition, rat PCA, oral, read-out: ED50 -PCA (rat) po.) | effectiveness compared with the commercial compound (Intal), i.v. administration (i.v., rat PCA, comparison in words) | activity in rat PCA when given intraperitonially (intraperitoneal, result in words) | ED50 (ip, effective dose 50% inhibition, rat PCA, intraperitoneal, read-out: ED50 -PCA (rat) ip.) | activity in rat PCA when given orally (oral, result in words) | ED50 -PCA (rat) ip. (effective dose 50% inhibition, rat PCA, intraperitoneal) | ED50 -PCA (rat) po. (effective dose 50% inhibition, rat PCA, oral)
1 | O=C(O)c1ccc2nc3cc4ccccc4cc3c(=O)n2c1 [Example 1, 6-oxo-6H-benzo[g]pyrido[2,1-b]quinazoline-3-carboxylic acid] | 0.015 mg/kg | < 0.1 mg/kg | many times as effective | active | 0.015 mg/kg | active |  | 
2 | O=C(O)c1cc(=O)c2c(OCC(O)COc3cccc4oc(C(=O)O)cc(=O)c34)cccc2o1 [Intal, Cromoglycate, reference compound] | 1 to 2 mg/kg |  |  |  |  |  | inactive | inactive
